Test results published in US5369104A, “Pyridazine compounds, their production and use” (Takeda Chemical Industries, Ltd., priority 1991, dated 1994).

Test system: PAF-induced bronchoconstriction
Assay: Action against PAF-induced bronchoconstriction in guinea pigs (Konzett-R6essler method)
Assay type: in vivo, guinea pig (male Hartley)
Conditions: guinea pig; 10 mg/Kg orally, 1 hour before PAF (1 μg/Kg, i.v.); recorded for 15 minutes
Method: (Action against PAF-induced bronchoconstriction in guinea pigs)
Male Hartley guinea pigs (body weight 500 g) were used. The bronchoconstriction reaction in the guinea pig which has intravenously received PAF (1 μg/kg) was measured by the Konzett-R6essler method. The trachea of the guinea pig with its back fixed was incised under anesthesia condition with urethane (intraperitoneal injection, 1.50 g/Kg) and connected with an artificial respirator via a cannula. The branch of the tracheal cannula was connected with a transducer (7020 type, Ugobasile). Air was sent to the trachea at the volume of 3-7 ml/stroke, at the stroke of 70 strokes/min. at load pressure of 10cm H2 O to lung and overflowed air volume was recorded with Rectegraph (Recte-Hori-8s, Sanei Sokuki) via the transducer. After the guinea pig was treated with galamine (1 mg/Kg, i.v.), PAF (1 μg/Kg) dissolved in a physiological saline solution was administered to the guinea pig via a jugular venous cannula and the bronchoconstriction reaction induced thereby was recorded for 15 minutes. The drug (10 mg/Kg) suspended in a 5% gum arabic solution was administered orally 1 hour before the injection of PAF.
Action against PAF-induced bronchoconstriction of guinea pigs

Cc1cc2nccn2nc1CCC(C)(C)CCS(N)(=O)=O [Example 4, 6-(3,3-dimethyl-5-sulfamoyl-1-pentyl)-7-methylimidazo[1,2-b]pyridazine]
Inhibition (%) of PAF-induced bronchoconstriction: 86%
